# Counter-ions that a name gives are not always drawn.
# Test system: human Jurkat T cells challenged with Fas ligand and treated with zVAD
# Experiment: Anti-necrotic activity, human Jurkat T cells challenged with Fas ligand and treated with zVAD
# Format: cell-based
# Conditions: viability after 36 h by CellTiter ATP assay, read-out: EC50 (μM) for cell viability
# Text: (§1) After a cell receives an initial assault either apoptotic, necrotic, or both apoptotic and necrotic mechanisms of cell death may be activated. The present example focuses on the necrosis pathway. Several chemical assaults were used to induce cell death, including exposure to tumor necrosis factor alpha (TNF-α), Fas ligand or β-amyloid protein. Various cell types were also used, including human neuroblastoma cells (SH-SY5Y) and human Jurkat T cells. In order to block the apoptosis mechanism, a general caspase inhibitor, N-benzyloxycarbonyl-valine-alanine-aspartic acid-(OMe) fluoromethyl ketone (zVAD, Polyerino, A. J.; Patterson, S. D. J. Biol. Chem. 1997, 272, 7013-7021), was used. […] Resulting cell death occurs by a necrosis-like mechanism (Holler, N., et al. Nature Immunol. 2000, 1, 489-495; Kawahara, A., et al. J. Cell Biol. 1998, 143, 1353-1360). Experimental compounds were applied to the cells in attempts to rescue them from this necrotic death. Therefore, compounds found to restore cell viability using this protocol are inhibitors of the necrosis pathway.
# Compounds were also tested in another necrosis assay utilizing human Jurkat T cells, Fas ligand to induce cell death, and zVAD to inhibit the apoptosis pathway. After 36 h, cell viability was measure by the commercial CellTiter ATP cell viability assay (Promega).
# Compounds were screened for anti-necrotic activity utilizing human Jurkat T cells challenged with Fas ligand and treated with zVAD to inhibit the apoptosis pathway.
row,SMILES,EC50
1,"CN1C(=O)C(Cc2c[nH]c3cc(Cl)ccc23)NC1=S (centres unmarked) [Compound 893-11, 5-(6-Chloro-1H-indol-3-ylmethyl)-3-methyl-2-thioxo-imidazolidin-4-one]",67 µM
2,"CN1C(=O)C(Cc2c[nH]c3c(Cl)cccc23)NC1=S (centres unmarked) [Compound 893-10, 5-(7-Chloro-1H-indol-3-ylmethyl)-3-methyl-2-thioxo-imidazolidin-4-one]",1.5 µM
3,"CN1C(=O)C(Cc2c[nH]c3c(Br)cccc23)NC1=S (centres unmarked) [Compound 893-12, 5-(7-Bromo-1H-indol-3-ylmethyl)-3-methyl-2-thioxo-imidazolidin-4-one]",1.8 µM
4,"CN1C(=O)NC(Cc2c[nH]c3ccccc23)C1=O (centres unmarked) [Compound 893-20, 3-Methyl-5-(1H-indol-3-ylmethyl)-imidazolidine-2,4-dione]",6 µM
5,"CN1C(=O)C(Cc2c[nH]c3cc(F)ccc23)NC1=S (centres unmarked) [Compound 893-05, 5-(6-Fluoro-1H-Indol-3-ylmethyl)-3-methyl-2-thioxo-imidazolidin-4-one]",2.3 µM
6,"CN1C(=O)C(Cc2csc3ccccc23)NC1=S (centres unmarked) [Compound 893-21, 5-Benzo[b]thiophen-3-ylmethyl-3-methyl-2-thioxo-imidazolidin-4-one]",8 µM
7,"CN1C(=O)C(Cc2c[nH]c3ccccc23)NC1=S (centres unmarked) [Compound 893-01, 5-(1H-Indol-3-ylmethyl)-3-methyl-2-thioxo-imidazolidin-4-one]",6 µM
8,"COc1cccc2c(CC3NC(=S)N(C)C3=O)c[nH]c12 (centres unmarked) [Compound 893-13, 5-(7-Methoxy-1H-indol-3-ylmethyl)-3-methyl-2-thioxo-imidazolidin-4-one]",10.3 µM
9,"CCN1C(=O)NC(Cc2c[nH]c3ccccc23)C1=O (centres unmarked) [Compound 893-04, 3-Ethyl-5-(1H-indol-3-ylmethyl)-imidazolidine-2,4-dione]",10 µM
10,"CN1C(=O)C(Cc2cn(C)c3ccccc23)NC1=S (centres unmarked) [Compound 893-08, 3-Methyl-5-(1-methyl-1H-Indol-3-ylmethyl)-2-thioxo-imidazolidin-4-one]",35 µM
11,"CN1C(=O)C(Cc2c[nH]c3c(F)cccc23)NC1=S (centres unmarked) [Compound 893-09, 5-(7-Fluoro-1H-Indol-3-ylmethyl)-3-methyl-2-thioxo-imidazolidin-4-one]",4 µM

# Test system: human FAD-deficient Jurkat T cells challenged with human TNF-alpha
# Experiment: Anti-necrotic activity, FADD-/- Jurkat T cells challenged with human TNF-alpha
# Format: cell-based
# Conditions: 10 ng/ml human TNFα, 30 hours, CellTiter-Glo ATP assay, read-out: EC50 (μM) for cell viability
# Procedure: Compounds were screened for anti-necrotic activity utilizing human FAD-deficient Jurkat T cells challenged with human TNF-alpha. FADD−/− Jurkat cells (Juo P, et al. Cell Growth Differ. 1999, 10(12):797-804) were seeded at the density of 5*10^5 cells/mL into 96 well white plates (Costar) at 100 μL/well. Cells were treated in duplicate with various concentrations of test compounds in the presence or absence of 10 ng/ml human TNFα (Cell Sciences). After 30 hours viability of the cells was determined using luminescent ATP-based cell viability assay (CellTiter-Glo, Promega). Percentage of protection by the compound was calculated as a ratio of the cps (counts per second) value in the well treated with the test compound and TNFα to the cps value in the well treated with the compound alone.
row,SMILES,EC50
1,Cc1cccc2c(CC3NC(=O)N(C)C3=O)c[nH]c12 (centres unmarked) [Compound 893-38],> 10 µM
2,Cc1cccc2c(CC3NC(=O)N(C)C3=O)c[nH]c12 (centres unmarked) [Compound 893-23],0.095 µM

# Same assay, conditions: Homo sapiens, Jurkat, 30 h, 10 ng/ml human TNFα, CellTiter-Glo ATP assay, read-out: EC50 (μM) for cell viability
row,SMILES,EC50
1,"O=C1NC(Cc2c[nH]c3c(Cl)cccc23)CO1 (centres unmarked) [Compound 893-51, 4-(7-chloro-1H-indol-3-ylmethyl)-oxazolidin-2-one]",> 10 µM
2,Cc1[nH]c2c(Cl)cccc2c1CC1NC(=O)N(C)C1=O (centres unmarked) [Compound 893-43],> 10 µM
3,CN1C(=O)N[C@@H](Cc2c[nH]c3c(Cl)cccc23)C1=O [Compound 893-31],0.303 µM
4,CN1C(=O)NC(Cc2c[nH]c3c(Cl)c(Cl)ccc23)C1=O (centres unmarked) [Compound 893-50],> 10 µM
5,COc1cccc2c(CC3NC(=O)N(C)C3=O)c[nH]c12 (centres unmarked) [Compound 893-25],0.229 µM
6,"CN1C(=O)NC(Cc2cn(C)c3c(Cl)cccc23)C1=O (centres unmarked) [Compound 893-37, 5-(7-Chloro-1-methyl-1H-indol-3-ylmethyl)-3-methyl-imidazolidine-2,4-dione]",1.8 µM
7,CN1C(=O)NC(Cc2c[nH]c3c(Cl)cc(Cl)cc23)C1=O (centres unmarked) [Compound 893-33],> 10 µM
8,CN1C(=O)NC(Cc2c[nH]c3c(F)cccc23)C1=O (centres unmarked) [Compound 893-28],0.324 µM
9,CCN1C(=O)NC(Cc2c[nH]c3c(Cl)cccc23)C1=O (centres unmarked) [Compound 893-34],0.154 µM
10,COCCOc1cccc2c(CC3NC(=O)N(C)C3=O)c[nH]c12 (centres unmarked) [Compound 893-41],> 10 µM
11,"CN1C(=O)NC(Cc2csc3ccccc23)C1=O (racemic) [Compound 893-39, 5-benzo[b]thiophen-3-ylmethyl-3-methyl-imidazolidine-2,4-dione]",5.4 µM
12,"CN1C(=O)C(Cc2csc3ccccc23)NC1=S (centres unmarked) [Compound 893-21, 5-Benzo[b]thiophen-3-ylmethyl-3-methyl-2-thioxo-imidazolidin-4-one]",0.845 µM
13,CC(C)N1C(=O)NC(Cc2c[nH]c3c(Cl)cccc23)C1=O (centres unmarked) [Compound 893-44],> 10 µM
14,CN1C(=O)N[C@H](Cc2c[nH]c3c(Cl)cccc23)C1=O [Compound 893-32],0.078 µM
15,"CN1C(=O)NC(Cc2c[nH]c3ccccc23)C1=O (centres unmarked) [Compound 893-22, 5-(1H-Indol-3-ylmethyl)-3-methylimidazolidine-2,4-dione]",0.439 µM
16,"CN1C(=O)OC(Cc2c[nH]c3c(Cl)cccc23)C1=O (centres unmarked) [Compound 893-53, 5-(7-chloro-1H-indol-3-ylmethyl)-3-methyl-oxazolidine-2,4-dione]",0.359 µM
17,"CN1C(=O)C(Cc2c[nH]c3c(Cl)cccc23)N(C)C1=O (centres unmarked) [Compound 893-36, 5-(7-Chloro-1H-indol-3-ylmethyl)-1,3-dimethyl-imidazolidine-2,4-dione]",> 10 µM
18,"CN1CC(Cc2c[nH]c3c(Cl)cccc23)NC1=O (centres unmarked) [Compound 893-52, 4-(7-chloro-1H-indol-3-ylmethyl)-1-methyl-imidazolidin-2-one]",> 10 µM
19,CN1C(=O)NC(Cc2c[nH]c3c(OCc4ccccc4)cccc23)C1=O (centres unmarked) [Compound 893-42],> 10 µM

# Test system: human B cell line U-937
# Experiment: Library screen for inhibition of cell death induced by TNF-α in the presence of zVAD
# Format: cell-based
# Conditions: U-937 cells
# Text: as §1
# Compound libraries were screened for inhibition of cell death induced by TNF-α in the presence of zVAD in human B cell line U-937.
row,SMILES,inhibition of cell death induced by TNF-α in the presence of zVAD
1,CN1C(=O)C(Cc2c[nH]c3ccccc23)NC1=S (centres unmarked) [Compound 1],inhibitor of necrosis

# Test system: not given
# Experiment: not given
# Conditions: not given
row,melting point,SMILES
1,230 to 233 °C,"CN1C(=O)C(Cc2c[nH]c3c(Br)cccc23)NC1=S (centres unmarked) [Compound 893-12, 5-(7-Bromo-1H-indol-3-ylmethyl)-3-methyl-2-thioxo-imidazolidin-4-one]"
2,242 to 245 °C,"CN1C(=O)C(Cc2c[nH]c3c(Cl)cc(S(C)(=O)=O)cc23)NC1=S (centres unmarked) [Compound 893-16, 5-(7-Chloro-5-methanesulfonyl-1H-indol-3-ylmethyl)-3-methyl-2-thioxo-imidazolidin-4-one]"
3,126 to 129 °C,"CN1C(=O)C(Cc2c[nH]c3cc(F)ccc23)NC1=S (centres unmarked) [Compound 893-05, 5-(6-Fluoro-1H-Indol-3-ylmethyl)-3-methyl-2-thioxo-imidazolidin-4-one]"
4,219 to 222 °C,"COc1cccc2c(CC3NC(=S)N(C)C3=O)c[nH]c12 (centres unmarked) [Compound 893-13, 5-(7-Methoxy-1H-indol-3-ylmethyl)-3-methyl-2-thioxo-imidazolidin-4-one]"
5,229 to 232 °C,O=C1NC(=O)C(Cc2c[nH]c3ccccc23)N1 (centres unmarked) (as salt: potassium)
6,132 to 135 °C,"CN1C(=O)C(Cc2c[nH]c3ccccc23)N(C)C1=S (centres unmarked) [Compound 893-03, 5-(1H-Indol-3-ylmethyl)-1,3-dimethyl-2-thioxo-imidazolidin-4-one]"
7,155 to 157 °C,"CN1C(=O)C(Cc2cn(C)c3ccccc23)NC1=S (centres unmarked) [Compound 893-08, 3-Methyl-5-(1-methyl-1H-Indol-3-ylmethyl)-2-thioxo-imidazolidin-4-one]"
8,181 to 185 °C,"COc1ccc2[nH]cc(CC3NC(=S)N(C)C3=O)c2c1 (centres unmarked) [Compound 893-06, 5-(5-Methoxy-1H-Indol-3-ylmethyl)-3-methyl-2-thioxo-imidazolidin-4-one]"
9,166 to 168 °C,"CN1C(=O)C(Cc2c[nH]c3ccc(O)cc23)NC1=S (centres unmarked) [Compound 893-07, 5-(5-Hydroxy-1H-Indol-3-ylmethyl)-3-methyl-2-thioxo-imidazolidin-4-one]"
10,217 to 220 °C,"CN1C(=O)C(Cc2c[nH]c3c(F)cccc23)NC1=S (centres unmarked) [Compound 893-09, 5-(7-Fluoro-1H-Indol-3-ylmethyl)-3-methyl-2-thioxo-imidazolidin-4-one]"
11,179 to 182 °C,"CN1C(=O)C(C)(Cc2c[nH]c3ccccc23)NC1=S (centres unmarked) [Compound 893-02, 5-(1H-Indol-3-ylmethyl)-3,5-dimethyl-2-thioxo-imidazolidin-4-one]"
